Reference: patent US5968980A, “1,3-dialkylurea derivative” (Santen Pharmaceutical Co., Ltd., priority 1994, dated 1999)

Molecular target: T1, endopeptidase 24.11 (Rattus norvegicus, UniProt P07861)
T1 construct: A kidney was excised from a Wistar rat; from tissue; host or cells: Wistar rat kidney, crude membrane pellet suspended in HEPES buffer
T1 sequence (P07861 1-750): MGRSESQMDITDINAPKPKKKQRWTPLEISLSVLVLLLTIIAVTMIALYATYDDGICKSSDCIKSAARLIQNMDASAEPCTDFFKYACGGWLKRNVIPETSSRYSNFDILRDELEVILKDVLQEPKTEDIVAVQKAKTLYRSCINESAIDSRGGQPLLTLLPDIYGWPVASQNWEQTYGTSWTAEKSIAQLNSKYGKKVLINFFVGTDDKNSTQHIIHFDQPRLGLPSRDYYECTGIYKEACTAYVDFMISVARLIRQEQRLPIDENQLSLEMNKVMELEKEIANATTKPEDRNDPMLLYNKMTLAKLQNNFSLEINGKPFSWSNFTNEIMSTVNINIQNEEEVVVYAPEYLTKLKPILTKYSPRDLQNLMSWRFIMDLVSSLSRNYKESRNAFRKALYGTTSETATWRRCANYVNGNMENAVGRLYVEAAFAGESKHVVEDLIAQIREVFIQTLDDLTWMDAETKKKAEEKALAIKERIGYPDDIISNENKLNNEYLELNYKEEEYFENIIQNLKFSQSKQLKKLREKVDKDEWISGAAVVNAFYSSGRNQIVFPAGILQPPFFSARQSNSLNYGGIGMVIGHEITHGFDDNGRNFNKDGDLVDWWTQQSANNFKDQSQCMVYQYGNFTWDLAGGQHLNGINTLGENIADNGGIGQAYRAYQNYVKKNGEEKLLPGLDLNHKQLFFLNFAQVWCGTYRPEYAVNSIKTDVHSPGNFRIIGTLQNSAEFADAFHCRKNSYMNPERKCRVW
Assay: inhibition of endopeptidase 24.11 activity (DAGNPG cleavage, fluorescence, rat kidney enzyme preparation)
Type: biochemical
Conditions: DAGNPG 50 μM, 37° C., 30 minutes, pH 7.4, rat kidney enzyme preparation; read-out: IC50 (concentration required to inhibit endopeptidase 24.11 by 50%)
Excerpt: As a method for measuring endopeptidase 24.11 activity, Florentin et al. had reported a method for measuring the enzyme activity by a degree of cleavage of a peptide bond between glycine and p-nitrophenylalanine using N-dansyl-D-alanyl-glycyl-p-nitrophenylalanyl-glycine (DAGNPG) as a substrate (Anal. Biochem., 141, 62-69 (1984)). An effect of the present compounds on endopeptidase 24.11 was examined according to the method described in the literature.
An enzyme preparation used in this pharmacological test was prepared by extracting from a rat kidney by the following method according to the method of Malfloy et al. (J. Biol. Chem., 259, 14365-14370 (1984)).
A kidney was excised from a Wistar rat. The kidney was homogenized in Tris-hydrochloric acid buffer (5 mM, pH 7.4, containing 125 mM D-mannitol and 12 mM magnesium chloride). The homogenate was centrifuged at low speed (1,000×g) to give a supernatant. The supernatant was ultracentrifuged ([…]) for 120 minutes. The resulting pellet was suspended in Tris-hydrochloric acid buffer (2.5 mM, pH 7.4, containing 62.5 mM D-mannitol and 6 mM magnesium chloride). The suspension was centrifuged at low speed and then ultracentrifuged again. The resulting pellet was suspended in HEPES buffer (5 mM, pH 7.4) to give the enzyme preparation.
In order to examine the effect of the present compounds on the enzyme preparation, reactions were performed under the following condition using mixed solutions consisting of the composition shown in Table 1.
Enzyme preparation 0.3-0.5 μg protein
The above-mentioned solution (150 μl) was incubated at 37° C. for 30 minutes and then boiled at 100° C. for five minutes. To the solution was added 1.35 ml of Tris-hydrochloric acid buffer (50 mM, pH 7.4). The mixture was centrifuged at moderate speed (5,000×g) for five minutes to give a supernatant. Fluorescence intensity of the supernatant (excitation at 342 nm of wave length and emission at 562 nm) was measured.
The degree of the inhibitory effect of each test compound on the enzyme preparation is expressed by the inhibition rate calculated by the following equation. [formula]
A: fluorescence intensity of the sample in the absence of the test compound
B: fluorescence intensity of the sample in the presence of the test compound

| IC50 [nM] | SMILES |
| --- | --- |
| 0.55 | CC(C)CN(CC(CCc1ccccc1)C(=O)O)C(=O)N[C@@H](Cc1ccc(-c2ccccc2)cc1)C(=O)O (mixture of isomers) [Compound No. 5-6, (2S)-3-(4-Biphenylyl)-2-[3-[(2RS)-2-carboxy-4-phenylbutyl]-3-isobutylureido]propionic acid] |
| 4 | CC(C)CCC(CN(CC(C)C)C(=O)N[C@@H](Cc1ccc(-c2ccccc2)cc1)C(=O)O)C(=O)O (mixture of isomers) [Compound No. 7-3, (2S)-3-(4-Biphenylyl)-2-[3-[(2RS)-2-carboxy-5-methylhexyl]-3-isobutylureido]propionic acid] |
| 3.1 | CC(C)CN(CC(CCc1ccccc1)C(=O)O)C(=O)N[C@@H](Cc1ccc2ccccc2c1)C(=O)O (mixture of isomers) [Compound No. 7-6, (2S)-2-[3-[(2RS)-2-Carboxy-4-phenylbutyl]-3-isobutylureido]-3-(2-naphthyl)propionic acid] |
| 0.93 | CC(C)CN(CC(OCc1ccccc1)C(=O)O)C(=O)N[C@@H](Cc1ccc(-c2ccccc2)cc1)C(=O)O (single isomer, unassigned) [Compound No. 8-1, (2S)-2-[3-[(2S or 2R)-2-Benzyloxy-2-carboxyethyl]-3-isobutylureido]-3-(4-biphenylyl)propionic acid] |
| 0.58 | CC(C)CN(CC(CCc1ccccc1)C(=O)O)C(=O)N[C@@H](Cc1ccc(-c2ccccc2)cc1)C(=O)O (single isomer, unassigned) [Compound No. 9-1, (2S)-3-(4-Biphenylyl)-2-[3-[(2S or 2R)-2-carboxy-4-phenylbutyl]-3-isobutylureido]propionic acid] |
| 2.1 | CC(C)CN(CC(CCc1ccccc1)C(=O)NO)C(=O)N[C@@H](Cc1ccc(-c2ccccc2)cc1)C(=O)O (single isomer, unassigned) [Compound No. 10-1, (2S)-3-(4-Biphenylyl)-2-[3-[(2S or 2R)-2-hydroxycarbamoyl-4-phenylbutyl]-3-isobutylureido]propionic acid] |
| 1.3 | CC(C)CN(CCC(=O)O)C(=O)N[C@@H](Cc1ccc(-c2ccccc2)cc1)C(=O)O [Compound No. 5-1, (2S)-3-(4-Biphenylyl)-2-[3-(2-carboxyethyl)-3-isobutylureido]propionic acid] |
| 9.3 | CC(C)CN(CCC(=O)O)C(=O)N[C@@H](Cc1ccc2ccccc2c1)C(=O)O [Compound No. 5-21, (2S)-2-[3-(2-Carboxyethyl)-3-isobutylureido]-3-(2-naphthyl)propionic acid] |
